Measurements from patent US20090068290A1, “BIFEPRUNOX DOSES FOR TREATING SCHIZOPHRENIA” (priority 2006, published 2009).
Where two headings read alike, the source gives them in different places.

Columns and labels:
Type in all cases: in vivo, human
[1] = Pharmacokinetic interaction of lithium and bifeprunox in healthy male subjects; details: bifeprunox up to 40 mg per day and lithium 450 mg twice daily
Experimental: Because bifeprunox may be used in combination with the mood-stabilizing drug lithium for the treatment of patients with psychoses and mood disorders, the effect of multiple doses of bifeprunox on the pharmacokinetic (PK) profile of lithium was evaluated. Lithium has a narrow therapeutic index that can complicate therapy, and serum levels greater than 1.5 mmol/L carry a greater risk of lithium toxicity than do lower levels.
METHODS: This was a single center, double-blind, randomized, placebo-controlled, parallel-design study in 48 healthy male subjects. All subjects were to receive open-label lithium (450 mg) twice daily on days 1 through 8 and, provided serum levels were stable on days 5 through 7, again on days 9 through 20. Subjects whose serum levels were stable on days 5 through 7 were included in those randomized to receive, in addition to lithium 450 mg twice daily, either placebo or a rising dose of bifeprunox (0.025-40 mg) once daily on days 9 through 17, and placebo or bifeprunox 40 mg on days 18 through 21. Only a single morning dose of lithium 450 mg was administered on day 21. Lithium, steady-state Cmax, AUC over the dosing interval (0-t), and renal clearance (CL-R) values were compared between the bifeprunox and placebo groups using ANCOVA with baseline values of lithium measured on day 8 as covariate.

[2] = tested on: patients with chronic schizophrenia; experiment: BPRS total and psychosis cluster scores, Clinical Study Four; details: FAS, LOCF, ANCOVA
Experimental: (§1) METHODOLOGY: This study was a multinational, multicenter, randomized, double-blind, parallel-group, placebo-controlled, fixed-dose study. The study consisted of a 3- to 6-day antipsychotic-free run-in period, after which patients were randomised to 6 months of double-blind treatment with fixed doses of bifeprunox (20 mg/day (BX20) or 30 mg/day (BX30)) or placebo (PBO). Patients allocated to the BX groups were up-titrated from 0.25 mg/day over 7 days (BX20) or 8 days (BX30), and then continued on these doses for the remainder of the study. […] At predetermined time points, blood samples were obtained for drug concentration analysis of BX and its major metabolites (3′- and 4′-sulfate conjugates of BX), and pharmaco-economic assessments were performed.

[3] = tested on: patients with chronic schizophrenia; experiment: PANSS positive subscale score, Clinical Study Four; details: FAS, ANCOVA; for PANSS positive subscale, Adjusted Mean Change from Baseline (LS mean): LOCF
Experimental: as §1

[4] = tested on: patients with chronic schizophrenia; experiment: Time to deterioration, Clinical Study Four (6-month, placebo-controlled); details: for proportion of patients who deteriorated / time to deterioration of schizophrenia versus PBO (in words): 6 months; for proportion of patients who deteriorated / estimated hazard ratio relative to PBO, time to deterioration (Cox proportional hazards model) / Hazard Ratio (Cox), time to deterioration / % Deteriorated / No. of Pts Deteriorated: FAS; for time to deterioration of schizophrenia versus PBO (in words): BX 20 and 30 mg/day
Experimental: as §1
Investigational Product, Dose and Mode of Administration, Batch Number: Bifeprunox—up-titration over 7 (20 mg) or 8 days (30 mg) to 20 or 30 mg once daily; encapsulated tablets, orally.
Reference Thera Dose and Mode of Administration: Placebo—encapsulated tablets, orally.

[5] = Pharmacokinetics of bifeprunox, pooled analysis and population PK; details: for half-life: read-out: mean plasma steady-state (elimination) half-life (converted)
Description: The objective of this study is to assess the pharmacokinetics (PK) of bifeprunox. The PK of bifeprunox in healthy subjects were investigated based on a pooled analysis of PK parameters from 21 clinical pharmacology studies. The pooled analysis included PK profiles after single and multiple doses to 132 and 399 subjects, respectively, and explored the potential effects of age, gender, body weight, and race. In addition, PK in patients with schizophrenia were investigated using a population PK approach based on samples from 376 patients in phase II studies and 434 patients in phase III studies.

[6] = tested on: patients with chronic schizophrenia; experiment: Movement rating scales SAS, BAS, AIMS, Clinical Study Four; details: for AIMS total score at Month 6: APTS; for proportion of patients normal with respect to SAS status: Month 6
Experimental: as §1
The SAS is used to measure Parkinsonian-type symptoms in patients exposed to antipsychotics. The scale consists of 10 items, each rated on a 5-point scale ranging from 0 (complete absence of the condition) to 4 (presence of the condition in extreme form). The SAS total score is defined as the sum of all item scores, and the range is 0 to 40. A SAS total score of up to 3 is considered normal.
The BAS is used to rate observable, restless movements of drug-induced akathisia as well as the subjective awareness of restlessness and any distress associated with the akathisia. The scale consists of 3 items that is rated from 0 (no evidence of akathisia) to 3 (severe akathisia). The BAS total score is defined as the sum of the these three BAS item scores and ranges from is 0 to 9. In addition, a global clinical assessment of akathisia is rated from 0 (no evidence of akathisia) to 5 (severe akathisia).
The AIMS, designed to record the occurrence of dyskinetic movements, consists of 12 items. Items 1 to 7 measure specific involuntary movements on a scale from 0 (none) to 4 (severe). Items 8 to 10 measure global assessment of abnormal movement on a scale from 0 (no awareness) to 4 (aware, severe distress). Items 11 and 12 are questions regarding the dental condition of the patient, with yes/no answers. The total score is calculated by summing AIMS items 1 through 10 and ranges from 0 to 40; the non-global total score is calculated by summing items 1 through 7.

## O=c1[nH]c2cccc(N3CCN(Cc4cccc(-c5ccccc5)c4)CC3)c2o1 [Bifeprunox, 7-[4-([1,1′-biphenyl]-3-ylmethyl)-1-piperazinyl]-2(3H)-benzoxazolone]
[1]
  tolerability of combined administration: well tolerated
[2]; Month 6, listed as BX20
  BPRS psychosis cluster, Adjusted Mean Change from Baseline (LS mean): −0.1
  BPRS total, Adjusted Mean Change from Baseline (LS mean): −0.1
[2]; Month 6, listed as BX30
  BPRS psychosis cluster, Adjusted Mean Change from Baseline (LS mean): −0.2
  BPRS total, Adjusted Mean Change from Baseline (LS mean): 0.5
[2]; Week 6, listed as BX20
  BPRS psychosis cluster, Adjusted Mean Change from Baseline (LS mean): −0.8
  BPRS total, Adjusted Mean Change from Baseline (LS mean): −2.1
[2]; Week 6, listed as BX30
  BPRS psychosis cluster, Adjusted Mean Change from Baseline (LS mean): −0.7
  BPRS total, Adjusted Mean Change from Baseline (LS mean): −1.3
[3]; BX20 or BX30
  PANSS positive subscale scores versus PBO, per-visit LOCF analysis: statistically significantly superior to that with PBO from Week 6 onwards
[3]; Month 6
  PANSS positive subscale, Adjusted Mean Change from Baseline (LS mean): 0.3
[3]; Week 6, listed as BX20
  PANSS positive subscale, Adjusted Mean Change from Baseline (LS mean): −0.9
[3]; Week 6, listed as BX30
  PANSS positive subscale, Adjusted Mean Change from Baseline (LS mean): −0.8
[4]; BX20 (20 mg/day)
  proportion of patients who deteriorated: 41%
  estimated hazard ratio relative to PBO, time to deterioration (Cox proportional hazards model): 0.66
[4]; BX20 (bifeprunox 20 mg) relative to PBO
  Hazard Ratio (Cox), time to deterioration: 0.656
[4]; BX20 (bifeprunox 20 mg)
  % Deteriorated: 40.5%
[4]; BX20 (bifeprunox 20 mg), N 158
  No. of Pts Deteriorated: 64
[4]
  time to deterioration of schizophrenia versus PBO (in words): prevented deterioration of schizophrenia statistically significantly better than placebo
[4]; listed as BX
  time to deterioration of schizophrenia versus PBO (in words): statistically significantly longer time to deterioration
[4]; BX30 (30 mg/day)
  proportion of patients who deteriorated: 38%
  estimated hazard ratio relative to PBO, time to deterioration (Cox proportional hazards model): 0.65
[4]; BX30 (bifeprunox 30 mg) relative to PBO
  Hazard Ratio (Cox), time to deterioration: 0.653
[4]; BX30 (bifeprunox 30 mg)
  % Deteriorated: 38.4%
[4]; BX30 (bifeprunox 30 mg), N 172
  No. of Pts Deteriorated: 66
[5]; human, in vivo, po
  half-life: 14.4 h
[5]; human, in vivo, oral administration, all dose levels
  Tmax: 1.5 to 2 h
[5]; human, in vivo, oral
  half-life: ~14 h
[5]
  dose proportionality of multiple-dose PK: dose-proportional in the 20-40 mg/day range
[5]; listed as bifeprunox
  dose proportionality of multiple-dose PK: dose-proportional in the 2040 mg range
[5]; pooled analysis
  age-, gender-, body weight- or race-related effects on PK: No clinically significant age-, gender-, body weight- or race-related effects
[5]; steady-state, oral
  mean apparent clearance: 62.2 L/h
  mean apparent volume of distribution: 1300 L
[6]; BX20, Baseline, LOCF
  AIMS score, mean (SD): 1.04 (2.76)
  BAS score, mean (SD): 0.44 (1.10)
  SAS score, mean (SD): 2.27 (3.72)
[6]; BX20, Baseline, OC
  AIMS score, mean (SD): 1.04 (2.76)
  BAS score, mean (SD): 0.46 (1.10)
  SAS score, mean (SD): 2.27 (3.72)
[6]; BX20, Month 6, LOCF
  AIMS score, mean (SD): 1.55 (3.92)
  BAS score, mean (SD): 0.49 (1.25)
  SAS score, mean (SD): 1.22 (2.47)
[6]; BX20, Month 6, OC
  AIMS score, mean (SD): 1.08 (2.13)
  BAS score, mean (SD): 0.17 (0.42)
  SAS score, mean (SD): 0.97 (2.20)
[6]; BX20, Week 6, LOCF
  AIMS score, mean (SD): 1.59 (3.96)
  BAS score, mean (SD): 0.49 (1.21)
  SAS score, mean (SD): 1.43 (2.77)
[6]; BX20, Week 6, OC
  AIMS score, mean (SD): 1.16 (2.55)
  BAS score, mean (SD): 0.36 (0.99)
  SAS score, mean (SD): 1.31 (2.69)
[6]; BX20, OC
  AIMS total score at Month 6: 1.08
[6]; BX20
  proportion of patients normal with respect to SAS status: 89%
[6]; BX30, Baseline, LOCF
  AIMS score, mean (SD): 1.35 (2.79)
  BAS score, mean (SD): 0.45 (1.11)
  SAS score, mean (SD): 2.33 (3.53)
[6]; BX30, Baseline, OC
  AIMS score, mean (SD): 1.35 (2.79)
  SAS score, mean (SD): 2.33 (3.53)
[6]; BX30, Month 6, LOCF
  AIMS score, mean (SD): 2.77 (6.09)
  SAS score, mean (SD): 2.09 (3.64)
[6]; BX30, Month 6, OC
  AIMS score, mean (SD): 0.86 (3.18)
  BAS score, mean (SD): 0.16 (0.65)
  SAS score, mean (SD): 1.16 (2.78)
[6]; BX30, Week 6, LOCF
  AIMS score, mean (SD): 2.83 (6.09)
  BAS score, mean (SD): 0.66 (1.55)
  SAS score, mean (SD): 2.35 (3.87)
[6]; BX30, Week 6, OC
  AIMS score, mean (SD): 1.80 (4.25)
  SAS score, mean (SD): 2.06 (3.41)
[6]; BX30, OC
  AIMS total score at Month 6: 0.86
[6]; BX30
  proportion of patients normal with respect to SAS status: 78%
